Test results as given in paper PMC11649397, “The study of halogen effect on the reactivity of the serine-targeting covalent warheads” (Frontiers in Chemistry, 2024).
Like-named read-outs stand apart in the source and are kept apart here.

How the values were obtained:
[1] = molecular target: T1, hCES2A (Homo sapiens, UniProt O00748); experiment: Inhibition assay on hCES2A (fluorescent substrate FD); type: biochemical; conditions: for selective inhibitory activity on hCES2A: 10 μM, selectivity screening; for IC50: mean ± SD, n = 3
T1 sequence (O00748 27-559): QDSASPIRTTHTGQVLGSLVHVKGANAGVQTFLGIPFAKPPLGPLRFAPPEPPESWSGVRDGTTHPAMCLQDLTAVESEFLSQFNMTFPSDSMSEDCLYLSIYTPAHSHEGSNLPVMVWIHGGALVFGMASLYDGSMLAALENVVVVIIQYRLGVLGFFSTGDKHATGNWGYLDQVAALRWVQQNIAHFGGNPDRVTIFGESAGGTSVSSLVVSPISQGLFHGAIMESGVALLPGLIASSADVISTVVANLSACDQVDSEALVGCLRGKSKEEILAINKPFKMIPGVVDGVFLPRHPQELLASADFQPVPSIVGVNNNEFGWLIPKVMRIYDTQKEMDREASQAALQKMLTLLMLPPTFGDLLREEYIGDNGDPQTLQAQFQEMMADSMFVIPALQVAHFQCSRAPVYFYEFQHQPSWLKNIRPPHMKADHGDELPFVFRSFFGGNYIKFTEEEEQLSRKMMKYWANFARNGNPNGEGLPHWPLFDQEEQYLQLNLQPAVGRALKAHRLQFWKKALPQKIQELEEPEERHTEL
Experimental: 1. Detailed experimental, materials, and methods
The household library of covalent fragments including D and F was from Organic Chemistry […]
Fig. S1. Partial fragment molecules of a household library targeting to serine. […]
Inhibition assay on hCES2A
Human carboxylesterase 2 (hCES2A) inhibition assays were conducted using FD, a known fluorescent substrate. 3 Briefly, hCES2A (0.4 μg/mL, final concentration) was preincubated with analytes/DMSO (as a control group) in PBS (pH 7.4) at 37 °C for 3 min. This was followed by adding the substrate FD (4 μM, final concentration) in the incubation mixture and allowing it to react for 30 min. The fluorescent signals (excitation/emission, 480 nm/525 nm) were continuously recorded by a microplate reader (SpectraMax iD3Molecular Devices, Austria). […]

[2] = molecular target: T2, Notum (Homo sapiens, UniProt Q6P988); experiment: Inhibition assay on Notum (substrate OPTS); type: biochemical; conditions: 10 μM, selectivity screening
T2 sequence (Q6P988 20-496): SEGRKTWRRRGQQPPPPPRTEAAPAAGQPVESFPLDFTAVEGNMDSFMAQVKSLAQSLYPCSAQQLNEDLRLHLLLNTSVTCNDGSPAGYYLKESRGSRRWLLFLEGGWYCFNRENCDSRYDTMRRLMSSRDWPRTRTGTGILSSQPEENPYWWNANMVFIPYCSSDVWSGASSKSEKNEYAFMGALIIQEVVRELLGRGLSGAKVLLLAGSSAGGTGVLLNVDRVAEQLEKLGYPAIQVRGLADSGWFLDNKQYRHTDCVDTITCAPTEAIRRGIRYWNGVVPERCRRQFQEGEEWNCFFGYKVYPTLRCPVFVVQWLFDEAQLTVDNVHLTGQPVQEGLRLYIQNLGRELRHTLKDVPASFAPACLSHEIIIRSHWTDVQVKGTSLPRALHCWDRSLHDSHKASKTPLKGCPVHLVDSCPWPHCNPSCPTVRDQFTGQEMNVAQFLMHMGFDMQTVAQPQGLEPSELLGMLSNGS
Experimental: fluorogenic probe. 4 Briefly, the incubation mixtures (0.1 mL) contained Tris-HCl buffer, hPL solution (0.25 μg/mL, final concentration), porcine bile salt (0.1 mg/mL, final concentration) and each inhibitor (with different concentrations). After preincubated at 37 °C for 3 min, DDAO-ol (20 µM, final concentration) was added to initial reaction. The fluorescent signals of hydrolytic product were quantified by using the microplate reader (Spectra Max M4, Austria), with the wavelength of 600 nm and 660 nm for excitation and emission, respectively.
Inhibition assay on Notum
OPTS, a known fluorogenic probe, was used as the substrate to assess the residual activities of Notum in the presence of each tested compound. […] After preincubated at 37 °C for 1 min, OPTS was added to initiate the hydrolytic reaction and the multi-mode microplate reader (SpectraMax iD3, Molecular Devices, Austria) was used to analyze the florescence signals of the […]
The F-3, F-4, F-10-bound peptides was analysed using the nanoLC-MS/MS system, respectively.6 The purified hCES1A (150 μg, final content) was co-incubated with the small molecule inhibitor F-3/ F-4/ F-10 (100 μM, final concentration) at 4 °C and 25 °C, respectively, for 4h. […]

Row | Structure (SMILES) | selective inhibitory activity on hCES2A [1] | IC50 ([1]; 3 min incubation, read-out: hCES2A IC50 3 min) | time-dependent inhibition against hCES2A ([1]; 3 min vs 33 min incubation) | IC50 ([1]; 33 min incubation, read-out: hCES2A IC50 33 min) | response to Notum [2]
1 | O=C(c1ccccc1)C(F)(F)F [F, 2,2,2-trifluoroacetophenone] | decent selective inhibitory activities | 0.16 ± 0.0184 µM | no significant time-dependent inhibition | 0.336 ± 0.0372 µM | no potent responses
2 | O=S(=O)(F)c1ccc(Br)cc1 [D, 4-bromobenzenesulfonyl fluoride] | decent selective inhibitory activities | – | – | – | no potent responses
